The text below walks through data of US20240150340A1, “CDK Inhibitors And Their Use As Pharmaceuticals” (Prelude Therapeutics Incorporated, priority 2022, published 2024).

The target of one assay is T1, CDK4/Cyclin D1 (Homo sapiens, UniProt P11802).
T1 construct: purchased ProQinase; host or cells: insect cell
As to the kind of experiment: CDK4/CyclinD1 Enzymatic Activity Assay (TR-FRET). The format is biochemical. The settings on record: ATP 2 mM final, read-out: CDK4_D1 IC50. Summed up:
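Insect-cell-expressed CDK4/Cyclin D1 (1 nM) with ULight-4E-BP1 (100 nM) and 2 mM ATP in HEPES pH 7.4; 9-dose 3-fold compound series preincubated 20 min, reaction started with 10 mM MgCl2, 45 min at 37° C. Europium anti-P-4E-BP1 TR-FRET read; IC50 from 4-parameter Hill fit.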

The target in the next assay is T2, CDK2/Cyclin E2 (Homo sapiens, UniProt P24941).
T2 construct: Recombinant protein complex CDK2/Cyclin E2, expressed from insect cell, was purchased from ProQinase
As to the kind of experiment: CDK2/CyclinE2 Enzymatic Activity Assay (TR-FRET). Type of assay: biochemical. Particulars: ATP 1 mM final, read-out: CDK2_E1 IC50. Summed up:
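Recombinant insect-cell CDK2/Cyclin E2 (1 nM) phosphorylated ULight-4E-BP1 (50 nM) with 1 mM ATP in HEPES pH 7.4 buffer, after 20 min compound preincubation; MgCl2 (10 mM) started the 45 min reaction at 37° C. Europium anti-phospho-4E-BP1 TR-FRET read; 9-dose IC50 by 4-parameter fit.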
Background: Time-resolved FRET reads energy transfer from a long-lived donor to a nearby acceptor.

The subject of a further assay is OVCAR3 p-RB. As to the kind of experiment: pRB ICW Assay in OVCAR3 Cells. Type of assay: cell-based. The settings on record: Homo sapiens, OVCAR-3, incubated with compound for 2 hours. The essentials:
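In-Cell Western on OVCAR3: phospho-RB antibody signal with DRAQ5 counterstain read at 700 and 800 nm after fixation. Compounds were applied for 2 h at 37° C. as 9-point ½-log dilutions in duplicate; 10 μM reference compound defined full inhibition.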

Where only a bound is given, the exact number is not on record here.

T1 sequence (P11802 whole entry): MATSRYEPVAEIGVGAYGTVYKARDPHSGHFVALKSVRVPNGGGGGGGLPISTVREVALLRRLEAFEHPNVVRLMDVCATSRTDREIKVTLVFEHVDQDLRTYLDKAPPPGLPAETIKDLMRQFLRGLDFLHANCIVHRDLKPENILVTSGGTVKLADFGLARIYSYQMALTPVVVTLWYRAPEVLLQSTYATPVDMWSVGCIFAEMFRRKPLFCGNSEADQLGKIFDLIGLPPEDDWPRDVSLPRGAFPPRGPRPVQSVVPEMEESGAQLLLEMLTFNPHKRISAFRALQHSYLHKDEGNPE
T1 sequence (P24385 whole entry partner): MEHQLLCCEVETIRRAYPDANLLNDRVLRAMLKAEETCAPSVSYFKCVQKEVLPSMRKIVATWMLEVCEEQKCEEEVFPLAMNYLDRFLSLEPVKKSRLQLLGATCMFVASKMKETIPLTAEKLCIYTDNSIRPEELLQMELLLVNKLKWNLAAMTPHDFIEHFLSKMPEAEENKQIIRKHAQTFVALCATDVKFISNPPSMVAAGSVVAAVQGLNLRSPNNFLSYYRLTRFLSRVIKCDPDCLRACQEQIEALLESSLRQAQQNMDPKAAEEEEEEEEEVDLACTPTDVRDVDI

As for `Cn1cc(S(=O)(=O)N2CCC(Nc3ncc(C(F)(F)F)c(-c4ncc(CC(C)(C)O)s4)n3)CC2)cn1` [Example 62, 2-methyl-1-(2-(2-((1-((1-methyl-1H-pyrazol-4-yl)sulfonyl)piperidin-4-yl)amino)-5-(trifluoromethyl)pyrimidin-4-yl)thiazol-5-yl)propan-2-ol], the 50% inhibitory concentration (IC50) at CDK4/Cyclin D1, at CDK2/Cyclin E2 and in the assay on OVCAR3 p-RB was ≤ 100 nM in each case.

Turning to `CC(O)c1cnc(-c2nc(NC3CCN(S(=O)(=O)c4cn(C)cn4)CC3)ncc2C(F)(F)F)s1` (stereo not drawn) [Example 63, 1-(2-(2-((1-((1-methyl-1H-imidazol-4-yl)sulfonyl)piperidin-4-yl)amino)-5-(trifluoromethyl)pyrimidin-4-yl)thiazol-5-yl)ethan-1-ol], the half-inhibitory concentration (IC50) on CDK4/Cyclin D1, at CDK2/Cyclin E2 and in the assay with OVCAR3 p-RB was ≤ 100 nM throughout.

Turning to `Cc1cnc(-c2nc(N[C@H]3CCN(S(=O)(=O)c4cn(C)cn4)C[C@H]3C)ncc2C(F)(F)F)s1` [Example 64, N-((3R,4S)-3-methyl-1-((1-methyl-1H-imidazol-4-yl)sulfonyl)piperidin-4-yl)-4-(5-methylthiazol-2-yl)-5-(trifluoromethyl)pyrimidin-2-amine], the IC50 – broadly, the point on the concentration scale where inhibition reaches its midpoint – is 100 to 500 nM on CDK4/Cyclin D1, ≤ 100 nM at CDK2/Cyclin E2 and > 500 nM in the assay on OVCAR3 p-RB.

As for `Cc1cnc(-c2nc(NC3CCN(S(C)(=O)=O)CC3)ncc2C(F)(F)F)s1` [Example 65, N-(1-(methylsulfonyl)piperidin-4-yl)-4-(5-methylthiazol-2-yl)-5-(trifluoromethyl)pyrimidin-2-amine], the IC50 on CDK4/Cyclin D1 is ≤ 100 nM; at CDK2/Cyclin E2, ≤ 100 nM; in the assay with OVCAR3 p-RB, 100 to 500 nM.

As to `Cn1cnc(S(=O)(=O)N2CC[C@@H](Nc3ncc(C(F)(F)F)c(-c4cc(C(N)=O)ns4)n3)[C@H](F)C2)c1` [Example 66, 5-(2-(((3R,4R)-3-fluoro-1-((1-methyl-1H-imidazol-4-yl)sulfonyl)piperidin-4-yl)amino)-5-(trifluoromethyl)pyrimidin-4-yl)isothiazole-3-carboxamide], the IC50 on CDK4/Cyclin D1, on CDK2/Cyclin E2 and in the assay with OVCAR3 p-RB was ≤ 100 nM in each case.

Consider `Cn1cnc(S(=O)(=O)N2CC[C@H](Nc3ncc(C(F)(F)F)c(-c4cc(C(N)=O)ns4)n3)[C@H](F)C2)c1` [Example 67, 5-(2-(((3R,4S)-3-fluoro-1-((1-methyl-1H-imidazol-4-yl)sulfonyl)piperidin-4-yl)amino)-5-(trifluoromethyl)pyrimidin-4-yl)isothiazole-3-carboxamide], for which the IC50 on CDK4/Cyclin D1, on CDK2/Cyclin E2 and in the assay on OVCAR3 p-RB was ≤ 100 nM each time.

`CC(O)c1sc(-c2nc(N[C@H]3CCN(S(=O)(=O)c4c[nH]cn4)C[C@H]3C)ncc2C(F)(F)F)cc1C#N` (stereo partly drawn) [Example 68, 5-(2-(((3R,4S)-1-((1H-imidazol-4-yl)sulfonyl)-3-methylpiperidin-4-yl)amino)-5-(trifluoromethyl)pyrimidin-4-yl)-2-(1-hydroxyethyl)thiophene-3-carbonitrile]: the figures for the IC50 at CDK4/Cyclin D1, at CDK2/Cyclin E2 and in the assay with OVCAR3 p-RB were 100 to 500 nM, ≤ 100 nM and 100 to 500 nM, respectively.

Turning to `Cn1cc(S(=O)(=O)N2CCC(Nc3ncc(C(F)(F)F)c(-c4cc(C#N)cs4)n3)CC2)cn1` [Example 69, 5-(2-((1-((1-Methyl-1H-pyrazol-4-yl)sulfonyl)piperidin-4-yl)amino)-5-(trifluoromethyl)pyrimidin-4-yl)thiophene-3-carbonitrile], the IC50 at CDK4/Cyclin D1 was 100 to 500 nM; on CDK2/Cyclin E2, ≤ 100 nM; in the assay with OVCAR3 p-RB, ≤ 100 nM.

With `Cc1sc(-c2nc(NC3CCN(S(C)(=O)=O)CC3)ncc2C(F)(F)F)cc1C(N)=O` [Example 70, 2-methyl-5-(2-((1-(methylsulfonyl)piperidin-4-yl)amino)-5-(trifluoromethyl)pyrimidin-4-yl)thiophene-3-carboxamide], the IC50 at CDK4/Cyclin D1, on CDK2/Cyclin E2 and in the assay with OVCAR3 p-RB was ≤ 100 nM each time.

With `Cc1sc(-c2nc(NC3CCN(S(=O)(=O)c4cnn(C)c4)CC3)ncc2C(F)(F)F)cc1C(N)=O` [Example 71, 2-methyl-5-(2-((1-((1-methyl-1H-pyrazol-4-yl)sulfonyl)piperidin-4-yl)amino)-5-(trifluoromethyl)pyrimidin-4-yl)thiophene-3-carboxamide], the half-maximal inhibitory concentration (IC50) at CDK4/Cyclin D1, at CDK2/Cyclin E2 and in the assay on OVCAR3 p-RB was ≤ 100 nM throughout.

Turning to `Cc1sc(-c2nc(NC3CCN(S(=O)(=O)c4cnn(C)c4)CC3)ncc2C(F)(F)F)cc1C#N` [Example 72, 2-methyl-5-(2-((1-((1-methyl-1H-pyrazol-4-yl)sulfonyl)piperidin-4-yl)amino)-5-(trifluoromethyl)pyrimidin-4-yl)thiophene-3-carbonitrile], the IC50 on CDK4/Cyclin D1, at CDK2/Cyclin E2 and with OVCAR3 p-RB was ≤ 100 nM in each case.

As for `CS(=O)(=O)N1CCC(Nc2ncc(C(F)(F)F)c(-c3cc(C(N)=O)cs3)n2)CC1` [Example 73, 5-(2-((1-(methylsulfonyl)piperidin-4-yl)amino)-5-(trifluoromethyl)pyrimidin-4-yl)thiophene-3-carboxamide], the IC50 on CDK4/Cyclin D1, on CDK2/Cyclin E2 and with OVCAR3 p-RB was ≤ 100 nM throughout.

With `Cn1cc(S(=O)(=O)N2CCC(Nc3ncc(C(F)(F)F)c(-c4cc(C(N)=O)cs4)n3)CC2)cn1` [Example 74, 5-(2-((1-((1-methyl-1H-pyrazol-4-yl)sulfonyl)piperidin-4-yl)amino)-5-(trifluoromethyl)pyrimidin-4-yl)thiophene-3-carboxamide], the IC50 at CDK4/Cyclin D1, on CDK2/Cyclin E2 and in the assay on OVCAR3 p-RB was ≤ 100 nM in each case.

As for `COc1cc(-c2nc(NC3CCN(S(=O)(=O)c4cn(C)cn4)CC3)ncc2C(F)(F)F)sc1C` [Example 75, 4-(4-methoxy-5-methylthiophen-2-yl)-N-(1-((1-methyl-1H-imidazol-4-yl)sulfonyl)piperidin-4-yl)-5-(trifluoromethyl)pyrimidin-2-amine], the IC50 is > 500 nM at CDK4/Cyclin D1, ≤ 100 nM on CDK2/Cyclin E2 and > 500 nM with OVCAR3 p-RB.

For `COc1cc(-c2nc(NC3CCN(S(C)(=O)=O)CC3)ncc2C(F)(F)F)sc1C` [Example 76, 4-(4-methoxy-5-methylthiophen-2-yl)-N-(1-(methylsulfonyl)piperidin-4-yl)-5-(trifluoromethyl)pyrimidin-2-amine], the values for the IC50 on CDK4/Cyclin D1, on CDK2/Cyclin E2 and in the assay on OVCAR3 p-RB were 100 to 500 nM, 100 to 500 nM and > 500 nM, respectively.

In the case of `Cc1cc(-c2nc(NC3CCN(S(=O)(=O)c4cnn(C)c4)CC3)ncc2C(F)(F)F)sn1` [Example 77, N-(1-((1-methyl-1H-pyrazol-4-yl)sulfonyl)piperidin-4-yl)-4-(3-methylisothiazol-5-yl)-5-(trifluoromethyl)pyrimidin-2-amine], the IC50 was > 500 nM at CDK4/Cyclin D1, ≤ 100 nM at CDK2/Cyclin E2 and > 500 nM in the assay with OVCAR3 p-RB.

`Cc1cc(-c2nc(NC3CCN(S(C)(=O)=O)CC3)ncc2C(F)(F)F)sn1` [Example 78, 4-(3-methylisothiazol-5-yl)-N-(1-(methylsulfonyl)piperidin-4-yl)-5-(trifluoromethyl)pyrimidin-2-amine]: the 50% inhibitory concentration (IC50) on CDK4/Cyclin D1 was > 500 nM; at CDK2/Cyclin E2, 100 to 500 nM; in the assay with OVCAR3 p-RB, > 500 nM.

As for `Cc1sc(-c2nc(NC3CCN(S(=O)(=O)c4cnn(C)c4)CC3)ncc2C(F)(F)F)cc1C(F)F` [Example 79, 4-(4-(difluoromethyl)-5-methylthiophen-2-yl)-N-(1-((1-methyl-1H-pyrazol-4-yl)sulfonyl)piperidin-4-yl)-5-(trifluoromethyl)pyrimidin-2-amine], the IC50 is ≤ 100 nM at CDK4/Cyclin D1, ≤ 100 nM at CDK2/Cyclin E2 and 100 to 500 nM with OVCAR3 p-RB.

On to `Cc1sc(-c2nc(NC3CCN(S(C)(=O)=O)CC3)ncc2C(F)(F)F)cc1C(F)F` [Example 80, 4-(4-(difluoromethyl)-5-methylthiophen-2-yl)-N-(1-(methylsulfonyl)piperidin-4-yl)-5-(trifluoromethyl)pyrimidin-2-amine], for which the IC50 at CDK4/Cyclin D1 was ≤ 100 nM; at CDK2/Cyclin E2, ≤ 100 nM; in the assay with OVCAR3 p-RB it was 100 to 500 nM.

With `CC(=O)c1cc(-c2nc(NC3CCN(S(=O)(=O)c4cnn(C)c4)CC3)ncc2C(F)(F)F)sc1C` [Example 81, 1-(2-methyl-5-(2-((1-((1-methyl-1H-pyrazol-4-yl)sulfonyl)piperidin-4-yl)amino)-5-(trifluoromethyl)pyrimidin-4-yl)thiophen-3-yl)ethan-1-one], the IC50 on CDK4/Cyclin D1, on CDK2/Cyclin E2 and in the assay with OVCAR3 p-RB was ≤ 100 nM each time.

On to `COCc1cc(-c2nc(NC3CCN(S(=O)(=O)c4cnn(C)c4)CC3)ncc2C(F)(F)F)sc1C` [Example 82, 4-(4-(methoxymethyl)-5-methylthiophen-2-yl)-N-(1-((1-methyl-1H-pyrazol-4-yl)sulfonyl)piperidin-4-yl)-5-(trifluoromethyl)pyrimidin-2-amine], for which the half-inhibitory concentration (IC50) at CDK4/Cyclin D1 was 100 to 500 nM; on CDK2/Cyclin E2, ≤ 100 nM; in the assay with OVCAR3 p-RB, > 500 nM.

Consider `Cc1sc(-c2nc(NC3CCN(S(C)(=O)=O)CC3)ncc2C(F)(F)F)cc1C#N` [Example 83, 2-methyl-5-(2-((1-(methylsulfonyl)piperidin-4-yl)amino)-5-(trifluoromethyl)pyrimidin-4-yl)thiophene-3-carbonitrile], for which the IC50 is ≤ 100 nM on CDK4/Cyclin D1, ≤ 100 nM at CDK2/Cyclin E2 and 100 to 500 nM in the assay with OVCAR3 p-RB.
